The subject of this assay is mice. As to the kind of experiment: Neuropharmacological Assay (SmartCube): automated behavioral signature of compound-treated mice compared with a database of reference drug classes. Format: in vivo. The settings on record: for minimal effective dose: Mus musculus, ip; for minimal effective dose / MED / MED (minimal effective dose): i.p., that dose is shown. The procedure, abridged: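 Compounds in N-methyl-2-pyrrolidone/polyethylene glycol/propylene glycol were given i.p. 15 min before testing, at 3 doses; values shown are for 3.0 mg/kg. Video-captured behaviour was matched by algorithm against reference drug classes, giving a probability per class. MED: lowest dose reaching ≥45% total activity.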

Where [1] appears, read: minimal effective dose: dose having 45% or more total activity in SmartCube, if only one dose tested, read-out: MED.
The mark [2] stands for this setting: SmartCube class probability, 3.0 mg/kg i.p., 15 min before test.
[3] abbreviates: SmartCube probability class, 3.0 mg/kg dose, i.p. 15 min before the behavioral test.
Where [4] appears, read: SmartCube probability class, 3.0 mg/kg dose, i.p. 15 min before the behavioral test, hydrochloride, 3 mg/kg.
The mark [5] stands for this setting: dose having 45% or more total activity in SmartCube, if only one dose was tested, hydrochloride.
[6] abbreviates: probability that activity matches this class of agents, 3.0 mg/kg i.p., 15 min before test.
Setting [7] is: probability that activity matches this class of agents, 3.0 mg/kg i.p., 15 min before test, hydrochloride, 3 mg/kg.
Setting [8] is: minimal effective dose: dose having 45% or more total activity in SmartCube, if only one dose was tested, read-out: MED.
The mark [9] stands for this setting: dose having 45% or more total activity in SmartCube, if only one dose was tested, read-out: MED (minimal effective dose).
Setting [10] is: SmartCube class probability, 3.0 mg/kg i.p., 15 min before test, hydrochloride, 3 mg/kg.

Structures can show the parent of a compound that is named as a salt. Where two headings read alike, the source gives them in different places.

Regarding `CNC1CCc2sc(Cl)c(Cl)c2C1` (centres unmarked) [Compound 220, 2,3-dichloro-N-methyl-4,5,6,7-tetrahydrobenzothiophen-5-amine hydrochloride], the minimal effective dose under setting [1] was more than 3 mg/kg. Further, under setting [2], the AD result is listed as “ND (^ <4%)”, the AG result was “ND (^ <4%)”, the AN result is given as “ND (^ <4%)” and the AP result was “ND (^ <4%)”. For the same molecule, under setting [2], the AX result is “ND (^ <4%)”, the CE result was “ND (^ <4%)”, the HL result was “ND (^ <4%)” and the MS entry is recorded as “ND (^ <4%)”. Further, under setting [2], the PS entry is “ND (^ <4%)”, the SH result is reported as “ND (^ <4%)” and the UK entry is recorded as “++ (≥24%)”.
Turning to `CNC1(C)COc2ccsc2C1` (centres unmarked) [Compound 266, N, 6-dimethyl-5,7-dihydrothieno[3,2-b]pyran-6-amine formate salt], the minimal effective dose under setting [1] was more than 3 mg/kg. For the same molecule, under setting [2], the AD result is “ND (^ <4%)”, the AG entry is recorded as “ND (^ <4%)”, the AN result is given as “ND (^ <4%)” and the AP entry is given as “ND (^ <4%)”. Moreover, under setting [2], the AX result is “ND (^ <4%)”, the CE entry was “ND (^ <4%)”, the MS result was “ND (^ <4%)” and the PS result was “ND (^ <4%)”. Moreover, under setting [2], the SH result was “ND (^ <4%)” and the UK entry is on record as “+ (≥4%)”.
Turning to `CC1(N)CCc2sccc2C1` (single isomer, unassigned) [Compound 282, 5-methyl-4,5,6,7-tetrahydrobenzo[b]thiophen-5-amine hydrochloride], under setting [3], the AD result is “++++ (≥74%)”, the AG result was “ND (^ <4%)”, the AN entry is “ND (^ <4%)” and the CE entry was “ND (^ <4%)”. Under setting [3], the HL result is “ND (^ <4%)”, the MS result is given as “ND (^ <4%)”, the PS result is “ND (^ <4%)” and the SH entry is listed as “ND (^ <4%)”. Also, the UK entry under setting [3] was “ND (^ <4%)”. Besides, under setting [4], the AP entry is given as “ND (^ <4%)” and the AX entry is “ND (^ <4%)”. For the same molecule, the MED (minimal effective dose: dose having 45% or more total activity in SmartCube, if only one dose was tested) is on record as 3 mpk.
Regarding `Cc1csc2c1OCC(N)C2` (single isomer, unassigned) [Compound 296, 3-methyl-6,7-dihydro-5H-thieno[3,2-b]pyran-6-amine hydrochloride], under setting [3], the AD entry was “ND (^ <4%)”, the AG entry is on record as “ND (^ <4%)”, the AN result is “ND (^ <4%)” and the AX entry is “ND (^ <4%)”. Besides, under setting [3], the CE entry is “ND (^ <4%)”, the HL result was “ND (^ <4%)”, the MS entry is “ND (^ <4%)” and the PS result was “ND (^ <4%)”. The SH result under setting [3] is on record as “ND (^ <4%)”. For the same molecule, under setting [4], the AP result is “ND (^ <4%)” and the UK entry was “+ (≥4%)”. Besides, for the setting “minimal effective dose: dose having 45% or more total activity in SmartCube, if only one dose was tested, hydrochloride”, the MED is given as more than 3 mpk.
As for `CNC1CCc2csc(C#N)c2C1` (single isomer, unassigned) [Compound 134, 6-(methylamino)-4,5,6,7-tetrahydro-2-benzothiophene-1-carbonitrile hydrochloride], the “MED (minimal effective dose)” value under setting [5] was found to be 3 mpk. In addition, under setting [6], the AG result is listed as “ND (^ <4%)”, the AN result is reported as “ND (^ <4%)”, the AX result was “ND (^ <4%)” and the CE entry is “ND (^ <4%)”. In addition, under setting [6], the HL result is on record as “ND (^ <4%)”, the MS result is “ND (^ <4%)”, the PS result is listed as “ND (^ <4%)” and the SH entry is listed as “ND (^ <4%)”. Besides, under setting [7], the AD entry is recorded as “ND (^ <4%)”, the AP result was “ND (^ <4%)” and the UK result was “+++ (≥49%)”.
Turning to `CC1(N)CCc2sccc2C1` (single isomer, unassigned) [Compound 281, 5-methyl-4,5,6,7-tetrahydrobenzo[b]thiophen-5-amine hydrochloride], the minimal effective dose under setting [8] is 3 mg/kg. For the same molecule, under setting [3], the AD entry is “++++ (≥74%)”, the AG entry is recorded as “ND (^ <4%)”, the AN result is “ND (^ <4%)” and the CE result is recorded as “ND (^ <4%)”. Besides, under setting [3], the HL entry is listed as “ND (^ <4%)”, the MS result is given as “ND (^ <4%)”, the PS result was “ND (^ <4%)” and the SH entry is on record as “ND (^ <4%)”. Under setting [3], the UK entry is given as “ND (^ <4%)”. Besides, under setting [4], the AP entry is on record as “+ (≥4%)” and the AX result is on record as “+ (≥4%)”.
Take `NC1COc2ccsc2C1` (single isomer, unassigned) [Compound 135, 6,7-dihydro-5H-thieno[3,2-b]pyran-6-amine hydrochloride]: the minimal effective dose under setting [9] is 3 mg/kg. Under setting [6], the AD entry is “ND (^ <4%)”, the AG entry was “ND (^ <4%)”, the AN result was “ND (^ <4%)” and the AX entry was “ND (^ <4%)”. Further, under setting [6], the CE entry is reported as “ND (^ <4%)”, the HL result is reported as “ND (^ <4%)”, the MS result is on record as “ND (^ <4%)” and the PS result is given as “ND (^ <4%)”. For the same molecule, under setting [7], the AP entry was “+ (≥4%)”, the SH entry is “++ (≥24%)” and the UK result was “ND (^ <4%)”.
As to `CNC1CCc2cc(C)sc2C1` (single isomer, unassigned) [Compound 28, N, 2-dimethyl-4,5,6,7-tetrahydrobenzothiophen-6-amine hydrochloride], the “MED (minimal effective dose)” value under setting [5] is 3.0 mpk. Under setting [6], the AG entry is “ND (^ <4%)”, the AN result was “ND (^ <4%)”, the AX entry is reported as “++ (≥24%)” and the CE result is given as “ND (^ <4%)”. Besides, under setting [6], the HL entry is reported as “ND (^ <4%)”, the MS entry is listed as “ND (^ <4%)”, the PS result is recorded as “ND (^ <4%)” and the SH entry was “ND (^ <4%)”. For the same molecule, under setting [7], the AD result is recorded as “+++ (≥49%)”, the AP result is “ND (^ <4%)” and the UK entry is given as “ND (^ <4%)”.
As for `CNC1CCc2c(csc2C)C1` (single isomer, unassigned) [Compound 33, N, 1-dimethyl-4,5,6,7-tetrahydro-2-benzothiophen-5-amine hydrochloride], the “MED (minimal effective dose)” value under setting [5] amounted to 0.3 mpk. For the same molecule, under setting [6], the AD result was “+++ (≥49%)”, the AG result was “ND (^ <4%)”, the AN result is listed as “ND (^ <4%)” and the CE result is given as “ND (^ <4%)”. Under setting [6], the HL result is “ND (^ <4%)”, the MS result was “ND (^ <4%)”, the PS entry was “ND (^ <4%)” and the SH result was “ND (^ <4%)”. Further, the UK result under setting [6] was “ND (^ <4%)”. Also, under setting [7], the AP result was “++ (≥24%)” and the AX result is recorded as “ND (^ <4%)”.
For `CNC1(C)CCc2c(C(F)(F)F)csc2C1.Cl` (single isomer, unassigned) [Compound 262, N, 6-dimethyl-3-(trifluoromethyl)-5,7-dihydro-4H-benzothiophen-6-amine hydrochloride], under setting [2], the AG result was “ND (^ <4%)”, the AN entry is listed as “ND (^ <4%)”, the AP result is “ND (^ <4%)” and the AX result was “ND (^ <4%)”. In addition, under setting [2], the CE entry is on record as “ND (^ <4%)”, the HL result is on record as “ND (^ <4%)”, the MS result was “ND (^ <4%)” and the PS entry was “ND (^ <4%)”. Under setting [2], the SH entry was “ND (^ <4%)”. Under setting [10], the AD result is listed as “++ (≥24%)” and the UK result is “ND (^ <4%)”. Also, the MED (minimal effective dose: dose having 45% or more total activity in SmartCube, if only one dose tested, hydrochloride) is given as more than 3 mpk.
For the molecule `Cl.FC1(F)CC(NC2CCc3cscc3C2)C1` (single isomer, unassigned) [Compound 126, N-(3,3-difluorocyclobutyl)-4,5,6,7-tetrahydro-2-benzothiophen-5-amine hydrochloride], the minimal effective dose under setting [9] is more than 30 mg/kg. In addition, under setting [6], the AD result is “ND (^ <4%)”, the AG entry is “ND (^ <4%)”, the AN entry was “ND (^ <4%)” and the AP result is on record as “ND (^ <4%)”. For the same molecule, under setting [6], the AX result is given as “ND (^ <4%)”, the CE entry was “ND (^ <4%)”, the HL entry is reported as “ND (^ <4%)” and the MS entry is recorded as “ND (^ <4%)”. Moreover, under setting [6], the PS entry is reported as “ND (^ <4%)”, the SH result was “ND (^ <4%)” and the UK entry was “ND (^ <4%)”.
Regarding `CNC1CCc2ccsc2CC1` (centres unmarked) [Compound 327, N-methyl-5,6,7,8-tetrahydro-4H-cyclohepta[b]thiophen-6-amine hydrochloride], the minimal effective dose under setting [8] came to 3 mg/kg. In addition, under setting [3], the AD entry is “ND (^ <4%)”, the AG entry is “ND (^ <4%)”, the AN result was “ND (^ <4%)” and the AP result is reported as “ND (^ <4%)”. Under setting [3], the AX result is “++ (≥24%)”, the CE entry is “ND (^ <4%)”, the HL entry is listed as “ND (^ <4%)” and the MS result is on record as “ND (^ <4%)”. Further, under setting [3], the PS result is on record as “ND (^ <4%)”, the SH result is on record as “ND (^ <4%)” and the UK entry is “+++ (≥49%)”.

The values are drawn from patent publication US20260274814A1, “THIENYL COMPOUNDS FOR THE TREATMENT OF A CENTRAL NERVOUS SYSTEM DISEASE OR DISORDER” (Coreterra Therapeutics, Inc., priority 2023, published 2026).
